Reference: patent US20050282225A1, “Quantitative binding assays using green fluorescent protein as a label” (priority 1998, published 2005)
Where no end group is shown, it is not given here.

target: Avidin (Gallus gallus, UniProt P02701); test: not given; conditions: association (affinity) constant of the binding pair substance: Avidin; cited from earlier work
Sequence (P02701 25-152): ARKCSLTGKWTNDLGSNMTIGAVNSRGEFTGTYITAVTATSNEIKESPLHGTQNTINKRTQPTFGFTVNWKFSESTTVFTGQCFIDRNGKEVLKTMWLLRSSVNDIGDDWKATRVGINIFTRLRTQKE

With `O=C(O)CCCC[C@@H]1SC[C@@H]2NC(=O)N[C@@H]21` [Biotin] as the molecule, how does the Ka read?
The Ka was 10^15 M^−1.

Which Ka does the source give for `O=C(O)CCCCC1SCC2NC(=S)NC21` (stereo not drawn) [2-thiobiotin] here?
Its Ka is 10^13 M^−1.

With `COC(=O)CCCCC1SCC2NC(=O)N(C(=O)OC)C21` (stereo not drawn) [3′-N-methoxy-carbonylbiotin methyl ester] as the molecule, how does the Ka read?
The Ka was 10^9 M^−1.

With `N=C1N[C@H]2[C@H](CS[C@H]2CCCCC(=O)O)N1` [Iminobiotin] as the molecule, how does the Ka read?
Its Ka is 10^11 M^−1.

With `C[C@@H]1NC(=O)N[C@@H]1CCCCCC(=O)O` [Dethiobiotin] as the molecule, how does the Ka read?
The Ka was 10^13 M^−1.

system: anti-octapeptide M2 monoclonal antibody; test: heterogeneous competitive immunoassay with immobilized M2 antibody and octapeptide-GFP conjugate, selectivity study; format: binding; conditions: sequential incubation 25 min + 25 min, supernatant fluorescence (FIG. 10)
Experimental: A dose-response curve was constructed by incubating 200 μL of a solution of different concentrations of the octapeptide with 200 μL of a 140 μg/mL suspension of the immobilized antibody and 90 μL of 1.1×10^−8 M of octapeptide-GFP conjugate and 1.510 mL of PBS buffer.
The incubations were performed in a sequential manner. Initially, the octapeptide was incubated with the beads for 25 min. Then, the tubes were centrifuged at 2000×g for 15 min, the supernatant was removed, and the beads were washed three times with PBS. PBS (1.710 mL) and the octapeptide-GFP conjugate were added, and the mixture was incubated for an additional 25 min at room temperature. The beads were then centrifuged again as described, and 1.7 mL of the supernatant was transferred to plastic cuvettes for measurement of fluorescence emission at 508 nm. The selectivity of the assay was evaluated by constructing a dose-response curve for rev-octapeptide, an octapeptide with the amino acids of the octapeptide in the reverse order.

Which “response in dose-response curve (displacement of octapeptide-GFP from M2 antibody)” value does the source give for “KDDDDKYD [rev-octapeptide, octapeptide with the amino acids of the octapeptide in the reverse order]” here?
The value was “essentially no response”.
